Results from ChEMBL document CHEMBL4400534, “Pharmacophore-based design of novel 3-hydroxypyrimidine-2,4-dione subtypes as inhibitors of HIV reverse transcriptase-associated RNase H: Tolerance of a nonflexible linker” (Eur J Med Chem, 2019).

Experiments:
[1] = Cytotoxicity against human P4R5 cells after 72 hrs by XTT assay; assay type: cell-based
[2] = biological target: T1, Human immunodeficiency virus type 1 reverse transcriptase (Human immunodeficiency virus 1, UniProt Q72547); assay: Inhibition of HIV1 reverse transcriptase polymerase using deoxynucleotide triphosphates and 18 nucleotide DNA primer annealed to 100 nucleotide DNA template after 30 mins
[3] = system: Human immunodeficiency virus 1; assay: Antiviral activity against HIV-1 infected in human P4R5 cells assessed as reduction in viral replication preincubated for 24 hrs followed by viral infection and measured after 48 hrs by MAGI assay; assay type: functional, organism-based
[4] = biological target: T1, Human immunodeficiency virus type 1 reverse transcriptase; assay: Inhibition of HIV1 reverse transcriptase RNase H expressed in Escherichia coli JM109 using RNA/DNA duplex substrate HTS-1
[5] = biological target: Human immunodeficiency virus type 1 integrase (Human immunodeficiency virus 1, UniProt Q7ZJM1); assay: Inhibition of HIV1 integrase strand transfer activity using 5'-biotinylated oligonucleotide as substrate preincubated for 10 mins followed by substrate addition and measured after 30 mins
Chain of Human immunodeficiency virus type 1 integrase (Q7ZJM1 whole entry): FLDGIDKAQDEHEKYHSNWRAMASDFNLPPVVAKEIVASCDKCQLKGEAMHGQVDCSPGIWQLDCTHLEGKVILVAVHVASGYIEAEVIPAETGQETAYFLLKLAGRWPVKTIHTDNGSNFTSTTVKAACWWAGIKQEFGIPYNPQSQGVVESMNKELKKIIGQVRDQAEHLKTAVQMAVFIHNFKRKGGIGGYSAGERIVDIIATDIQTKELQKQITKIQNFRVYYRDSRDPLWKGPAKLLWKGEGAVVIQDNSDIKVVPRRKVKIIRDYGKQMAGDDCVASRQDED

COC(=O)c1ccc(-c2ccc(C(=O)c3cc(=O)n(O)c(=O)[nH]3)cc2)cc1
CC50 [1]: > 100 µM | IC50 [2]: > 10 µM | EC50 [3]: > 20 µM | IC50 [4]: 0.015 µM | IC50 [5]: 6.7 µM

CCOCn1c(C(=O)c2ccc(-c3ccccc3)cc2)cc(=O)n(O)c1=O
CC50 [1]: > 100 µM | IC50 [2]: > 10 µM | EC50 [3]: > 20 µM | IC50 [4]: 0.42 µM | IC50 [5]: > 100 µM

CCOCn1c(C(=O)c2cccc(-c3ccccc3)c2)cc(=O)n(O)c1=O
CC50 [1]: 73 µM | IC50 [2]: > 10 µM | EC50 [3]: 12 µM | IC50 [4]: 1.1 µM | IC50 [5]: > 100 µM

CCOCn1c(C(C#N)c2cc(C)cc(C)c2)cc(=O)n(O)c1=O (stereo not given)
CC50 [1]: > 100 µM | IC50 [2]: > 10 µM | EC50 [3]: > 20 µM | IC50 [4]: 3.7 µM | IC50 [5]: > 100 µM

Cc1cc(C)cc(-c2ccc(C(=O)c3cc(=O)n(O)c(=O)[nH]3)cc2)c1
CC50 [1]: > 100 µM | IC50 [2]: > 10 µM | EC50 [3]: > 20 µM | IC50 [4]: 0.063 µM | IC50 [5]: 3.5 µM

O=C(c1ccc(-c2ccc(C(F)(F)F)cc2)cc1)c1cc(=O)n(O)c(=O)[nH]1
CC50 [1]: 17 µM | IC50 [2]: > 10 µM | EC50 [3]: 5.3 µM | IC50 [4]: 0.026 µM | IC50 [5]: > 100 µM

CCOCn1c(C(C#N)c2ccc(-c3ccccc3)cc2)cc(=O)n(O)c1=O (stereo not given)
CC50 [1]: > 100 µM | IC50 [2]: > 10 µM | EC50 [3]: > 20 µM | IC50 [4]: 0.76 µM | IC50 [5]: > 100 µM

Cc1ccc(-c2ccc(C(=O)c3cc(=O)n(O)c(=O)[nH]3)cc2)cc1
CC50 [1]: 22 µM | IC50 [2]: > 10 µM | EC50 [3]: 4.7 µM | IC50 [4]: 0.021 µM | IC50 [5]: 10 µM

COc1ccc(-c2ccc(C(=O)c3cc(=O)n(O)c(=O)[nH]3)cc2)cc1
CC50 [1]: > 100 µM | IC50 [2]: 5.9 µM | EC50 [3]: > 20 µM | IC50 [4]: 0.53 µM | IC50 [5]: > 100 µM

Cc1cc(-c2ccc(C(=O)c3cc(=O)n(O)c(=O)[nH]3)cc2)ccc1F
CC50 [1]: > 100 µM | IC50 [2]: 8.3 µM | EC50 [3]: > 20 µM | IC50 [4]: 0.019 µM | IC50 [5]: 4.3 µM

Cc1ccc(C(=O)c2cc(=O)n(O)c(=O)[nH]2)cc1
CC50 [1]: 48 µM | IC50 [2]: > 10 µM | EC50 [3]: > 20 µM | IC50 [4]: 0.093 µM | IC50 [5]: 7.2 µM

Cc1cc(C)cc(C(=O)c2cc(=O)n(O)c(=O)[nH]2)c1
CC50 [1]: 21 µM | IC50 [2]: > 10 µM | EC50 [3]: 9.5 µM | IC50 [4]: 0.09 µM | IC50 [5]: 4.9 µM

O=C(c1ccc(C(F)(F)F)cc1)c1cc(=O)n(O)c(=O)[nH]1
CC50 [1]: > 100 µM | IC50 [2]: > 10 µM | EC50 [3]: > 20 µM | IC50 [4]: 0.081 µM | IC50 [5]: 2.1 µM

O=C(c1ccc(-c2ccc(F)cc2)cc1)c1cc(=O)n(O)c(=O)[nH]1
CC50 [1]: > 100 µM | IC50 [2]: > 10 µM | EC50 [3]: 9 µM | IC50 [4]: 0.027 µM | IC50 [5]: 6.7 µM

O=C(c1ccc(-c2ccccc2)cc1)c1cc(=O)n(O)c(=O)[nH]1
CC50 [1]: > 100 µM | IC50 [2]: > 10 µM | EC50 [3]: 15 µM | IC50 [4]: 0.022 µM | IC50 [5]: 2.5 µM

COC(=O)c1ccc(C(=O)c2cc(=O)n(O)c(=O)[nH]2)cc1
CC50 [1]: > 100 µM | IC50 [2]: > 10 µM | EC50 [3]: > 20 µM | IC50 [4]: 0.031 µM | IC50 [5]: 13 µM

N#Cc1ccc(-c2ccc(C(=O)c3cc(=O)n(O)c(=O)[nH]3)cc2)cc1
CC50 [1]: > 100 µM | IC50 [2]: 7.7 µM | EC50 [3]: > 20 µM | IC50 [4]: 0.024 µM | IC50 [5]: 0.53 µM

COc1ccc(-c2ccc(C(=O)c3cc(=O)n(O)c(=O)[nH]3)cc2)cc1OC
CC50 [1]: 8.4 µM | IC50 [2]: 9.6 µM | EC50 [3]: 6.7 µM | IC50 [4]: 0.074 µM | IC50 [5]: 0.33 µM

O=C(c1cccc(-c2ccccc2)c1)c1cc(=O)n(O)c(=O)[nH]1
CC50 [1]: > 100 µM | IC50 [2]: > 10 µM | EC50 [3]: > 20 µM | IC50 [4]: 0.017 µM | IC50 [5]: 7.1 µM

O=C(c1ccc(F)cc1)c1cc(=O)n(O)c(=O)[nH]1
CC50 [1]: > 100 µM | IC50 [2]: > 10 µM | EC50 [3]: > 20 µM | IC50 [4]: 0.085 µM | IC50 [5]: 4 µM

O=C(c1ccc(-c2ccc(Cl)c(F)c2)cc1)c1cc(=O)n(O)c(=O)[nH]1
CC50 [1]: > 100 µM | IC50 [2]: > 10 µM | EC50 [3]: 18 µM | IC50 [4]: 0.023 µM | IC50 [5]: 0.37 µM
